Assays:
olfactory receptor OR8D1 [1] = molecular target: T1, olfactory receptor OR8D1 (Homo sapiens, UniProt Q8WZ84); assay: Antagonistic activity against the response of OR8D1 to sotolone (luciferase assay, rate of inhibition); assay type: cell-based; conditions: sotolone 100 μM and test substance 100 μM, OR8D1-expressing HEK293 cells
T1 construct: expressed in transfected cells; host or cells: HEK293
T1 sequence (Q8WZ84 1-308): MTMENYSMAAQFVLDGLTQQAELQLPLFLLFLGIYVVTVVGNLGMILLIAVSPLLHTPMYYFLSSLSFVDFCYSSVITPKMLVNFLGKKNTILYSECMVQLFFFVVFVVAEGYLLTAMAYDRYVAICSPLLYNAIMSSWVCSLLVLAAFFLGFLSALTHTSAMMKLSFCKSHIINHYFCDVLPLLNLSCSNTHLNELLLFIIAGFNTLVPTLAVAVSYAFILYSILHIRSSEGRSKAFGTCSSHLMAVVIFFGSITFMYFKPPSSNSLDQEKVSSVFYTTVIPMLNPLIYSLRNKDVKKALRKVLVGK
Procedure: 228 types of test substances were examined for their antagonistic activity against the response of the olfactory receptor OR8D1 to sotolone.
Sotolone (100 μM) and each test substance (100 μM) were added to HEK293 cells allowed to express the olfactory receptor OR8D1 by the same procedures as in Example 2. The response of the olfactory receptor was measured to evaluate change in receptor response caused by the addition of the test substance.
The rate of inhibition of the receptor response by the test substance was calculated as follows: firefly luciferase-derived luminescence intensity (Y) in the olfactory receptor OR8D1-expressing cells without sotolone stimulation was subtracted from firefly luciferase-derived luminescence intensity (X) induced by stimulation with sotolone alone to determine receptor activity (X−Y) based on the stimulation with sotolone alone. Likewise, the luminescence intensity (Y) in the cells without sotolone stimulation was subtracted from luminescence intensity (Z) induced by stimulation with the mixture of sotolone and the test substance to determine receptor activity (Z−Y) in the presence of the test substance. The rate of reduction in the receptor activity (Z−Y) in the presence of the test substance with respect to the receptor activity (X−Y) based on the stimulation with sotolone alone was calculated according to an expression shown below to determine the rate of inhibition of the receptor response by the test substance. In this assay, a plurality of independent duplicate experiments was performed. An average of the experiments in each run was obtained. Rate of inhibition (%)={1−(Z−Y)/(X−Y)}×100

olfactory receptor OR8D1 [2] = molecular target: T1, olfactory receptor OR8D1; assay: Luciferase reporter gene assay (cAMP) of olfactory receptor response to sotolone in HEK293 cells; assay type: cell-based
Description: (§1) On the basis of sequence information registered in GenBank, each human olfactory receptor gene was cloned by PCR with Human Genomic DNA Female (G1521: Promega Corp.) as a template. Each gene thus amplified by PCR was inserted into a pENTR vector (Invitrogen Corp.) according to the manual. A NotI-AscI site present on the pENTR vector r was recombined into a NotI-AscI site prepared downstream of Flag-Rho tag sequence on a pME18S vector.
(§2) A gene (GenBank GI: 50234917) encoding a human receptor transport protein, RTP1S was inserted into the EcoRI-XhoI site of the pME18S vector.
(§3) HEK293 cells expressing each of 400 types of human olfactory receptors were prepared. […]
(§4) The olfactory receptors expressed on the HEK293 cells are conjugated with intracellular Gas to activate adenylate cyclase, thereby increasing intracellular cAMP levels. In this study, their responses to sotolone were measured using luciferase reporter gene assay which involved monitoring increase in intracellular cAMP level as luminescence intensity derived from a firefly luciferase gene (fluc2P-CRE-hygro). […]
(§5) A medium was removed from the cultures prepared in the preceding paragraph 3). […] The luciferase activity was measured using Dual-Glo™ luciferase assay system (Promega Corp.) according to the instruction manual of the product. […]

olfactory receptor OR8D1 [3] = molecular target: T1, olfactory receptor OR8D1; conditions: Non-Patent Document 5; cited from earlier work
[4] = tested on: the other olfactory receptors (400 types of human olfactory receptors except OR8D1); assay: Luciferase reporter gene assay of 400 types of human olfactory receptors, response to sotolone; assay type: cell-based; conditions: sotolone 1 mM, HEK293 cells expressing each receptor
Description: as §1, §2, §3, §4, §5

inhibition at 100 µM (olfactory receptor OR8D1 [1]) [%] | Structure (SMILES) | also measured
≥ 50 | CC(=O)C1(C)CC2=C(CCCC2(C)C)CC1C (stereo not drawn) [Iso E Super, 7-acetyl-1,2,3,4,5,6,7,8-octahydro-1,1,6,7-tetramethyl-naphthalene] | –
≥ 50 | CC1C/C=C/CCCCCCCCCC(=O)C1 [Muscenone(R) Delta, (5E)-3-methylcyclopentadec-5-en-1-one] | –
≥ 75 | CC(=O)C1=C(C)C2CC3(C1)C(C)CCC3C2(C)C (stereo not drawn) [acetylcedrene, 1-(2,3,4,7,8,8a-hexahydro-3,6,8,8-tetramethyl-1H-3a,7-methanoazulen-5-yl)-ethanone] | –

The remaining lines, values behind:

Structure (SMILES) | inhibition at 100 µM (olfactory receptor OR8D1 [1]) [%] | also measured
CC(C)=CCCC(C)=CC=O [Citral, citral] | ≥ 50 | –
CC(C)(C)c1ccc(CCC=O)cc1 [bourgeonal, 3-(4-tert-butylphenyl)propanal] | ≥ 50 | –
CC(=O)c1cc2c(cc1C)C(C)(C)C(C)CC2(C)C [Tonalid(R), 1-(5,6,7,8-tetrahydro-3,5,5,6,8,8-hexamethyl-2-naphthalenyl)-ethanone] | ≥ 50 | –
C[C@@H]1CCCCCCCCCCCCC(=O)C1 [Muscone, muscone] | – | rate of inhibition of the response of OR8D1 to sotolone (olfactory receptor OR8D1 [1]): 40% or more rate of
CC1=C(O)C(=O)OC1C (stereo not drawn) [sotolone, 3-Hydroxy-4,5-dimethyl-2(5H)-furanone] | – | concentration dependence of the response of OR8D1 to sotolone (olfactory receptor OR8D1 [2]; sotolone 0, 3, 10, 30, 100, 300, 1000 and 3000 μM, HEK293 cells with human RTP1S): concentration-dependent response; response of olfactory receptor OR8D1 to sotolone (olfactory receptor OR8D1 [2]; sotolone 1 mM, HEK293 cells expressing the receptor, 2.5 hours, fold increase of luminescence): exhibited a response; response of olfactory receptor OR8D1 induced by sotolone (reported) (olfactory receptor OR8D1 [3]): induces the response; response of the other olfactory receptors to sotolone [4]: did not respond
CCCCCC(C=O)=Cc1ccccc1 [amylcinnamic aldehyde, 2-benzylideneheptanal] | ≥ 50 | –

— patent US9254248B2, “Inhibitor of odor caused by sotolone” (Kao Corporaton, priority 2013, dated 2016)
